“And” between values parts separate entries of the source, which are not always exact repeats. Equal values may be shown once. Where a name gives a salt, the structure may show the parent alone.
Experiments:
[1] = target: T1, serotonin transporter (SERT or 5-HT) (Rattus norvegicus, UniProt P31652); assay: biochemical
[2] = target: T2, PCP (antagonist radioligand) (Rattus norvegicus, UniProt P35439); assay: Binding assay PCP (antagonist radioligand); conditions: Study 2; Hill coefficient
T2 construct: PCP; rat cerebral; [^3H]TCP; tissue Eurofins Cerep; host or cells: rat cerebral cortex

[3] = target: T1, serotonin transporter (SERT or 5-HT)
[4] = target: T3, norepinephrine transporter (NET) (Rattus norvegicus, UniProt Q63380); assay: Norepinephrine uptake assay; assay type: biochemical; conditions: for norepinephrine uptake, % inhibition: 1.0E−05 M
T3 construct: tissue Eurofins Cerep; host or cells: rat hypothalamus synaptosomes (own knowledge of the vendor's assay)

[5] = Novelty-suppressed feeding test (NSFT); assay type: in vivo; conditions: rat, 72 hr after single dose
[6] = target: NMDA (antagonist radioligand); assay: Binding assay NMDA (antagonist radioligand); conditions: Study 1; reference compound
[7] = target: μ (MOP) (h) (Homo sapiens, UniProt P35372)
[8] = test system: opioid receptors; conditions: cited from earlier work
[9] = mouse hot plate test; cited from earlier work
[10] = Locomotor activity assessment (distance traveled, rearing); assay type: in vivo, rat
[11] = Female urine sniffing test (FUST); assay type: in vivo; conditions: rat; 24 hr after single dose; ketamine 10 mg/kg ip, d-methadone 20 mg/kg sc
[12] = Forced swim test; assay type: in vivo, rat
[13] = 10 mg/kg, 24 hours prior to testing
[14] = rat, 24 h after dosing, one-way ANOVA
[15] = 10 mg/kg, single administration 24 hours prior, 60 counts per subject
[16] = Vehicle minus treatment, 10 mg/kg

μ (MOP) (h), sequence (P35372 whole entry): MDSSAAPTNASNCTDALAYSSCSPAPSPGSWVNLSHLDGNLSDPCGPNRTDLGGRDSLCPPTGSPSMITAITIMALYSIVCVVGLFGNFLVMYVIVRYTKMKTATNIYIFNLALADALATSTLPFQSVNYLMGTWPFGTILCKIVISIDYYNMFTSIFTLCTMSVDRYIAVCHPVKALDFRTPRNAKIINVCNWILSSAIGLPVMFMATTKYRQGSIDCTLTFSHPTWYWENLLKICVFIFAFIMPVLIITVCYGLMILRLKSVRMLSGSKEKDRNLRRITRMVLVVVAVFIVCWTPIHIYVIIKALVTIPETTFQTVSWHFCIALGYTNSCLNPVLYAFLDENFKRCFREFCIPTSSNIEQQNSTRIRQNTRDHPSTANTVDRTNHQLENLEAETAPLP
T3 sequence (Q63380 1-617): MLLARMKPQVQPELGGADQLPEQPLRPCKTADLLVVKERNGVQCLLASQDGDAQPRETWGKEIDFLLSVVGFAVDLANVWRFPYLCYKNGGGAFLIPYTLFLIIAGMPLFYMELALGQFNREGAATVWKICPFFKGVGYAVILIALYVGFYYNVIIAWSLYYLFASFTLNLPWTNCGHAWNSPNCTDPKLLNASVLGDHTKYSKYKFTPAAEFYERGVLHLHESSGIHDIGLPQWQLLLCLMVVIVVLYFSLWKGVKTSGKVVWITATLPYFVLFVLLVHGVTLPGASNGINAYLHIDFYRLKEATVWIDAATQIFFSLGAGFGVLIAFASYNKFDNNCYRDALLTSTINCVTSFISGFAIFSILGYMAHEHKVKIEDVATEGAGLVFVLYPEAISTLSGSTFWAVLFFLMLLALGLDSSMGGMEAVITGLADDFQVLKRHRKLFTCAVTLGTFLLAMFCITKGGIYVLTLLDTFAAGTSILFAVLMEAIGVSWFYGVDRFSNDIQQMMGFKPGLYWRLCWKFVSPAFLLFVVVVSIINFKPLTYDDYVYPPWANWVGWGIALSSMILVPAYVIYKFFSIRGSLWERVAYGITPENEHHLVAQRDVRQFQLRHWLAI
T1 sequence (P31652 whole entry): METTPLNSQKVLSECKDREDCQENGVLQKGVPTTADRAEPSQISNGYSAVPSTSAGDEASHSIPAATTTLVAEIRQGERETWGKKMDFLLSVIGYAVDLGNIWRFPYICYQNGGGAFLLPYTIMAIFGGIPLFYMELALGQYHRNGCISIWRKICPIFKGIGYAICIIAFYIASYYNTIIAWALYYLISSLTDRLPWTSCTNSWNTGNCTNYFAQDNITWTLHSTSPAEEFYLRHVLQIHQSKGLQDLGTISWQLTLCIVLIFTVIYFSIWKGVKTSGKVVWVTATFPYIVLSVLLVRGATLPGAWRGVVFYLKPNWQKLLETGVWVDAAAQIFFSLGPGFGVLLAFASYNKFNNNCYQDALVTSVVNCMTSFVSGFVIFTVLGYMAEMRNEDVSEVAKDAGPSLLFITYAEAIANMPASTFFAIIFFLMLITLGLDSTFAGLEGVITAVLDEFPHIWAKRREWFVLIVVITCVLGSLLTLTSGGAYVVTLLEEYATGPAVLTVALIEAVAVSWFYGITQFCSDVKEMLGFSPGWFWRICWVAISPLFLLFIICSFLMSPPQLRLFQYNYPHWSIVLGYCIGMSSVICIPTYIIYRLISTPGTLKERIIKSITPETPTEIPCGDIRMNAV

## [2H]C([2H])([2H])CC(=O)C(C[C@H](C)N(C([2H])([2H])[2H])C([2H])([2H])[2H])(c1ccccc1)c1ccccc1
[1]
  IC50: 1.1 µM
[2]
  nH: 0.8
[3]
  inhibition: 90.5%
[4]
  IC50: 7.2 µM
  norepinephrine uptake, % inhibition: 61.4%

## CCC(=O)C(CC(C)N(C)C)(c1ccccc1)c1ccccc1 (racemic) [methadone]
[5]
  NSFT: latency to feed in the home cage: neither ketamine or methadone influenced

## O=C(O)[C@@H]1C[C@H](CP(=O)(O)O)CCN1 [CGS 19755]
[6]
  IC50: 1.3 µM
  Ki: 1.1 µM

## C[C@@H](NC(=O)[C@@H](N)Cc1ccc(O)cc1)C(=O)NCC(=O)N(C)[C@@H](Cc1ccccc1)C(=O)NCCO [DAMGO]
[7]
  nH: 0.9 and 0.8 and 0.7 and 1.0 and 0.6

## C[C@]12N[C@H](Cc3ccccc31)c1ccccc12 [MK 801]
[2]
  nH: 0.9 and 1.1

## CC[C@@H](c1cccc(O)c1)[C@@H](C)CN(C)C [TapentadolHydrochloride]
[3]
  inhibition: 91.1% and 87.2% and 89.1%

## CCC(=O)C(c1ccccc1)(c1ccccc1)C(C)CN(C)C (stereo not drawn) [d-isomethadone]
[8]
  Potency, times less potent than l-isomethadone: 50 times

## C[C@H](CN1CCOCC1)C(C(=O)N1CCCC1)(c1ccccc1)c1ccccc1 [d-moramide]
[9]
  Potency, times more potent than l-moramide: 700 times

## CNC1(c2ccccc2Cl)CCCCC1=O (centres unmarked) [ketamine, reference compound]
[10]; [13]
  Distance traveled min 1-5, Mean: 586.333
  Rearing min 1-5, Mean: 20.500
  Total Distance Traveled, Mean: 2464.333 cm/60 min
[10]; 10 mg/kg, 24 hours prior to testing, 60 minute test
  Total Rearing, Mean: 85.000
[10]; [14]
  Locomotor activity: total distance traveled (60 min): no significant effect
  Locomotor activity: total rearing frequency (60 min): no significant effect
[5]
  NSFT: latency to feed in the home cage: neither ketamine or methadone influenced
[5]; ketamine 10 mg/kg ip, d-methadone 20 mg/kg sc
  NSFT: latency to eat in a novel open field: significantly decreases
[11]
  FUST: time sniffing water: no effect
  FUST: time spent sniffing female urine vs vehicle: increases
[12]; [15]
  Climbing, Mean frequency: 7.600
  Immobility, Mean frequency: 34.100
  Swimming, Mean frequency: 18.300
[12]; [16]
  Climbing, Mean Diff. (Fisher's PLSD): −3.822
  Immobility, Mean Diff. (Fisher's PLSD): 14.900
  Swimming, Mean Diff. (Fisher's PLSD): −11.078
[12]; rat, 24 h after single dose, d-methadone 10, 20 and 40 mg/kg SC, ketamine 10 mg/kg IP
  Forced swim test: frequency of immobility vs vehicle: significantly decreased
[12]; rat, d-methadone 10, 20 and 40 mg/kg SC, ketamine 10 mg/kg IP
  Forced swim test: frequency of swimming vs vehicle: significantly increased

## CC[C@@H](c1cccc(O)c1)[C@@H](C)CN(C)C [tapentadol hydrochloride, reference compound]
[1]
  IC50: 0.85 µM
[3]
  inhibition: 89.1%
[4]
  IC50: 0.26 µM
  norepinephrine uptake, % inhibition: 94.1%
